The values that follow are results of earlier work, collected in US11369575B2, “PPARα agonist compositions and methods of use” (The Board of Regents of the University of Oklahoma, priority 2019, dated 2022).

For this series the following is noted: free fenofibrate after IVT dosing.

Consider `CC(C)OC(=O)C(C)(C)Oc1ccc(C(=O)c2ccc(Cl)cc2)cc1` [fenofibrate], for which the “time in which active drug levels disappear” value is on record as “less than 1 week”.
